Measured values: patent US12239714B2, “Phosphatidylserine-binding conjugates” (CANBAS CO., LTD., priority 2021, dated 2025)
Entries after “also recorded” stand apart in the source; their conditions may differ.

Legend:
[1] = test system: CT-26 mouse colon cancer cell line; assay: Tumor growth curves of subcutaneously implanted CT-26 in syngeneic BALB/c mice (FIGS. 4A-4D); assay type: in vivo; conditions: for mouse body weight, compared with the triple drug combination: 100 μg/mouse iv added to Cisplatin+CBP501+anti-CTLA4, data not shown; for CT26 tumor growth, conjugate added to Cisplatin+CBP501+anti-CTLA4 treatment: 100 μg/mouse iv, day 2×2, day 3×1
Protocol: BALB/c mice were implanted subcutaneously with 5×10^5 cells mice colon cancer cell line, CT-26WT, at day −10 when the mice were at the age 6 weeks. Six mice made a group for each treatment when the average tumor size was 205 mm^3 (132-279 mm^3). Treatments were done as follows when the mice were at the age 8 weeks with body weight 19.5 to 24.5 g and tumor size were measured three times in a week.
Dosing schedule (“ip”: intraperitoneal injection; “iv”: intravenous injection): • Diphenhydramine (ip): 10 mg/kg (15 min before Cisplatin/CBP501 on day 1) • Cisplatin (iv): 4 mg/kg (day 1) • CBP501 (iv): 6 mg/kg (day 1) • Anti-CTLA4 antibody (ip) 200 μg/mouse (day2, 4) • TSA005,006 in saline (iv): 100 μg/mouse (day 2×2, day3×1) • TSA015 in HEPES (iv): 100 μg/mouse (day 2×2, day3×1) • Vehicle: saline (iv): 100 μL/mouse (day 2×2, day3×1) Distribution of the Cy5.5 Version of TSA006 (TSA013) in BALB/c Mouse. (FIG. 5)

[2] = test system: CT26 colon cancer cell line; assay: Syngeneic mice model, TSA005 (FIG. 1): growth of subcutaneous CT26 tumor; assay type: in vivo, BALB/c mice
Protocol: (§1) All animal studies were conducted according to protocols approved by institutional animal care committee of CanBas Co., Ltd. Six-week-old female BALB/c mice (The Jackson Laboratories Japan, Inc., Kanagawa, Japan) were inoculated subcutaneously in a flank with a suspension of CT26WT cells (5×10^5 cells). Ten days later mice were apportioned into 5 groups (6-8 mice/group) and treatments were initiated on day1.
The first cycle of the treatments was on day 1 to 5 and the second cycle was on day 10 to 14 as follows.
Cisplatin: Intravenous injection (i.v.) of Cisplatin 4 mg/kg and 5% Glucose on Day 1 and 10. Saline i.v. on Days 2, 3, 11 and 12.
Cisplatin+CBP501: Cisplatin 4 mg/kg and CBP501 6 mg/kg i.v. on Day 1 and 10. Saline i.v. on Days 2, 3, 11 and 12.
Cisplatin+CBP501+anti-CTLA-4 antibody: anti-CTLA4 antibody 200 μg intraperitoneal injection (i.p.) on Days 1 and 5. Cisplatin 4 mg/kg and CBP501 6 mg/kg i.v. on Day 2.
Cisplatin+CBP501+anti-CTLA-4 antibody+TSA005: anti-CTLA4 antibody 200 μg i.p. on Days 1 and 5. Cisplatin 4 mg/kg and CBP501 6 mg/kg i.v. on Day 2. TSA005 100 μg i.v. twice on Day 3 and once on Day 4.
Diphenhydramine 10 mg/kg was given i.p. 15 min before CBP501 or 5% Glucose treatment. The size of tumor was measured thrice weekly with a pair of calipers to calculate tumor volume by using the following formula: volume (mm^3)=[(width)^2 (mm)×length (mm)]/2.
Colon cancer cells from the CT26 cell line were subcutaneously inoculated in BALB/c mice 5×10^5 cells/mouse. The treatment was initiated on day 1, when the tumor sizes of 6-8 mice per test group attained an average size of about 200 mm^3. A cycle of the treatment schedule, dose and the route of treatment are detailed below. […]

[3] = test system: CT26 colon cancer cell line; assay: Syngeneic mice model, TSA005 compared to TSA009 (FIG. 2); assay type: in vivo, BALB/c mice; conditions: 100 μg i.v. twice on Day 3 and once on Day 4; one cycle
Protocol: as §1, with “days later, the” for “days later”, “into 3” for “into 5”, “groups (6” for “groups (6-8”, “on Day 1.” for “on day1.”
Cisplatin+CBP501+anti-CTLA-4 antibody: anti-CTLA4 antibody 200 μg intraperitoneal injection (i.p.) on Days 3 and 5. Cisplatin 4 mg/kg and CBP501 6 mg/kg i.v. on Day 2. Saline i.v. twice on Day 3 and once on Day 4.
Cisplatin+CBP501+anti-CTLA-4 antibody+TSA005: anti-CTLA4 antibody 200 μg i.p. on Days 3 and 5. Cisplatin 4 mg/kg and CBP501 6 mg/kg i.v. on Day 2. TSA005 100 μg i.v. twice on Day 3 and once on Day 4.
Cisplatin+CBP501+anti-CTLA-4 antibody+TSA009: anti-CTLA4 antibody 200 μg i.p. on Days 3 and 5. Cisplatin 4 mg/kg and CBP501 6 mg/kg i.v. on Day 2. […] 100 μg i.v. twice on Day 3 and once on Day 4.
Diphenhydramine 10 mg/kg was given i.p. 15 min before CBP501 or 5% Glucose treatment. The size of tumor was measured thrice weekly with a pair of calipers to calculate tumor volume by using the following formula: volume (mm^3)=[(width)2 (mm)×length (mm)]/2.

Substance | mouse body weight, compared with the triple drug combination [1] | CT26 tumor growth, conjugate added to Cisplatin+CBP501+anti-CTLA4 treatment [1] | tumor growth, TSA005 added to the CBP501+cisplatin combination ([2]; TSA005 100 μg i.v. Days 2, 3, 11 and 12, two cycles) | anti-tumor activity of TSA005 in combination with the two-drug or three-drug treatment regimen ([2]; TSA005 100 μg i.v., with CBP501+cisplatin or CBP501+cisplatin+anti-CTLA-4 antibody) | CT26 subcutaneous tumor growth, conjugate added to CBP501+cisplatin+anti-CTLA4 antibody [3] | subcutaneous tumor growth, CBP501+cisplatin combination versus cisplatin alone ([2]; Cisplatin 4 mg/kg and CBP501 6 mg/kg i.v. Day 1 and 10, CT26 in BALB/c mice, acetate salt)
(GEGKGGr)4-K2-K-Cys(MI-CL264)-NH2 [TSA006] | did not change the mouse body weight further | further tumor growth suppression; also recorded: further suppressed the tumor growth | – | – | – | –
(TLVSSLr)4-K2-K-Cys(MI-CL264)-NH2 [TSA005] | did not change the mouse body weight further | further tumor growth suppression; also recorded: further suppressed the tumor growth | further suppressed the tumor growth; also recorded: further reduced the growth of the tumor | enhanced anti-tumor activity; also recorded: reduced tumor growth further than the triple drug combination | suppressed CT26 subcutanous tumor growth more | –
(TLVSSLr)8-K4-K2-K-Cys(MI-CL264)-NH2 [TSA009] | – | – | – | – | not and deleterious effect | –
H-(D)p-benzoylphenylalanyl-(D)seryl-(D)tryptophanyl-(D)seryl-(D)pentafluorophenylalanyl-(D)cyclohexylalanyl-(D)arginyl-(D)arginyl- (D)arginyl-(D)glutaminyl-(D)arginyl-(D)arginine acetate salt [CBP501, reference compound] | – | – | – | – | – | suppressed subcutaneous tumor growth much better than cisplatin alone
